Experiments:
Assay type in all cases: cell-based
T80, HEY and SKOV3 cells = test: Annexin V-propidium iodide apoptosis assay; conditions: As2O3 treatment
Experimental: For assessment of apoptosis, the Annexin V-propidium iodide staining kit (Calbiochem, San Diego, Calif.) was used according to the manufacturer's protocol. Briefly, cells were treated with As2O3 for 24 hours at which time both the floating and adherent cells (removed by trypsinization) were collected. Cells were resuspended in PBS followed by the addition of annexin V-FITC and propidium iodide. The samples were then analyzed by flow cytometry at the MD Anderson Cancer Center FACS Core Facility. The FITC and the propidium iodide signals were detected at 518 nm with FL1 and at 620 nm with FL2, respectively.

[1] = tested on: LC3-I/LC3-II, autophagosomes; test: Autophagy: LC3 western, EGFP-LC3 fluorescence, TEM of autophagosomes
Experimental: (§1) Proteins were resolved on an 8%, 12%, or 15% SDS-PAGE gel (as appropriate) and electrophoretically transferred to polyvinyldifluoride (PVDF) membranes. After blocking with 5% (w/v) milk in TBST (Tris-Buffered Saline containing 0.1% Tween-20) for one hour at room temperature, membranes were incubated with primary antibodies (at appropriate dilution) overnight at 4° C., followed by extensive washing and incubation for 1 hour with the appropriate horseradish peroxidase-conjugated secondary antibodies (BioRad, Hercules, Calif.). Blots were washed extensively. A rabbit polyclonal EVI1 antibody was obtained (1:3000 dilution, St. Jude's Children's Hospital, Memphis, Tenn.). SnoN rabbit polyclonal (1:1000 dilution), PML, and p21 SMURF2 rabbit polyclonal (1:500 dilution), MRP1 mouse monoclonal (1:500 dilution) and GAPDH mouse monoclonal (1:250 dilution) antibodies were obtained from Santa Cruz Biotechnology (Santa Cruz, Calif.). TGFβRII rabbit polyclonal (1:1000 dilution) antibody was obtained from Strategic Diagnostics (Newark, Del.). Smad2/3 rabbit polyclonal (1:1000 dilution), Beclin-1 rabbit polyclonal (1:1000 dilution), AKT rabbit polyclonal (1:1000 dilution), TAK1 rabbit polyclonal (1:1000 dilution), PARP rabbit polyclonal (1:1000 dilution), Beclin-1 rabbit polyclonal (1:1000 dilution), caspase-3 rabbit polyclonal (1:1000) which detects the pro-caspase form, and ATG5 rabbit polyclonal (1:1000 dilution), LC3-II rabbit polyclonal (1:1000 dilution) antibodies were obtained from Cell Signaling Technology (Danvers, Mass.). The HSP27 mouse monoclonal (1:1000 dilution) antibody was obtained from Stressgen (Ann Arbor, Mich.). Blots were developed using chemiluminescence substrates (Amersham Piscataway, N.J. or BioRad, Hercules, Calif.). Monoclonal PAI-1 antibody was obtained from BD Pharmingen. PSMAD2, total SMAD2/3, p-ERK, p-AKT, and total AKT antibodies were obtained from Cell Signaling Technology. A monoclonal antibody against Arkadia was obtained from Abnova (Taiwan).
HEY cells were seeded onto glass coverslips and allowed to adhere following overnight incubation. The cells were then transiently transfected with EGFP-LC3 (Addgene, Cambridge, Mass.) and allowed to recover for 24 hours. The cells were treated at the appropriate concentrations of As2O3 in the absence or presence of 3-MA (5 and 10 mM), for 18 hours. The cells were then fixed in 4% paraformaldehyde in PBS for 30 minutes at room temperature, washed twice in PBS, and blocked for 1 hour at room temperature in PBS containing 5% goat serum and 0.1% Triton X-100. The cells were counterstained with Hoescht nuclear stain, washed 3 times for 5 minutes in PBS, anti-Fade containing DAPI nuclear stain was then applied, and coverslips mounted onto glass slides and viewed under a Zeiss inverted fluorescence microscope (Moffitt Cancer Center Microscopy Core).
Autophagy induction was analyzed using electron microscopy. […] Cells were then fixed in 2.5% glutaraldehyde in 0.1M phosphate buffer overnight at 4° C. Following rinsing in buffer, cells were scraped from the culture flasks, washed, and then post-fixed in 1% osmium tetroxide in buffer. After dehydration in a graded series of acetone, the cells were embedded in Embed 812 epoxy resin. Thin sections (70 nm) were cut on an Ultramicrotome. The sections on the grids were stained with uranyl acetate and lead citrate. The sections were examined on a Transmission Electron Microscope (Morgagni 268D).

[2] = tested on: TAK1, SMAD2/3, TGFβRII, AKT, phospho-SMAD2; test: Western analysis of other TGFβ signaling mediators
Experimental: as §1
Densitometric analysis was performed using the HP Scanjet 5590 and the Image J program (Image Processing and Analysis in Java, NIH Image Software). Bands were selected and the intensity values were normalized to those for GAPDH. The values are presented as fold-changes relative to control siRNA treated cells.
The clinical inhibitors As2O3, geldanamycin (17-AAG) (dissolved in dimethylsulfoxide [DMSO]), and MG132 (dissolved in DMSO) were obtained from Sigma-Aldrich (St. Louis, Mo.), Fisher Scientific (Pittsburgh, Pa.), and Alexis Biochemicals (Farmingdale, N.Y.), respectively. N-acetyl-L-cysteine (NAC; dissolved in media) and Bortezomib (PS-341; dissolved in DMSO) were obtained from Fisher Scientific. 3-Methyladenine (3-MA; dissolved in media) was obtained from MP Biomedicals (Solon, Ohio). Tiron (4,5-Dihydroxy-1,3-benzenedisulfonic acid, dissolved in media) was obtained from Fisher Scientific. zVAD-fmk (dissolved in DMSO) and bafilomycin A (dissolved in DMSO) was obtained from Axxora LLC (San Diego, Calif.). Bovine catalase was obtained from Sigma-Aldrich. HBED and Mn TBAP was obtained from ENZO Life Sciences (Farmingdale, N.Y.). Ovarian cells were plated in 6-well plates at 250,000 cells per well and grown in complete medium. The following day, the cells were treated with 5 μM MG132, As2O3 (between 2-50 μM), 17-AAG (between 2-50 μM), NAC (Fisher Scientific, between 25 μM to 1 mM), Tiron (between 25 μM to 1 mM), 3-MA (0.1 mM to 10 mM), or zVAD-fmk (25 μM to 100 μM). For control cells, DMSO (a final concentration of <0.5%) was added to compare appropriately to drugs dissolved in DMSO. After the appropriate incubation time (6 or 18 hours), cell lysates were collected, protein quantified, and SDS-PAGE/western analysis was performed. In addition, for selected studies, RNA was isolated, quantified, and used for qPCR analysis.

Arsenic trioxide [As2O3]
apoptotic percentage (T80, HEY and SKOV3 cells; SKOV3 and HEY): < 20%
apoptotic percentage (T80, HEY and SKOV3 cells; T80 (low expressing EVI1 cell line)): > 80%
levels of LC3-I and LC3-II ([1]; As2O3, 18 hours, correlated with SnoN expression): increased
EGFP-LC3 staining pattern ([1]; HEY, As2O3 between 5 μM to 25 μM, data not shown): punctuate staining pattern around the nucleus
autophagosomes by TEM ([1]; HEY, data not shown): numerous double membrane autophagosomes
TAK1, SMAD2/3, TGFβRII and AKT protein ([2]; HEY and OVCA429, 18 hours, increasing doses): markedly reduced
EVI1, TAK1, SMAD2/3, TGFβRII expression levels ([2]; HEY, 18 hours As2O3): Dramatic decreases
